The values that follow are results of earlier work, collected in PMC9599640.

On the set-up of the data set: method as in PMID 27217383. The note with it: phase I trial of abemaciclib.

Structures are written as SMILES.

For `CCN1CCN(Cc2ccc(Nc3ncc(F)c(-c4cc(F)c5nc(C)n(C(C)C)c5c4)n3)nc2)CC1` [abemaciclib], the MTD was 200 mg BID.
